According to patent US7842671B1, “Peptidomimetic inhibitors of STAT activity and uses thereof” (University of South Florida, priority 2003, dated 2010):
Square brackets hold non-standard residues; d marks the D form. Ends that are not written are not given here. pY = N[C@@H](Cc1ccc(OP(=O)(O)O)cc1)C(=O)O

Tests used:
MDA-MB-435 = assay type: cell-based, human; conditions: 1 mM, MDA-MB-435, four days
Protocol: (§1) Cell proliferation, soft-agar growth and Apo-BrdU labeling studies. Proliferating fibroblasts and human tumor cells were counted by phase-contrast microscopy for viable cells (using tyrpan blue exclusion). Colony formation assays in six-well dishes and quantification of colonies by iodonitrotetrazolium violet have been previously described (Turkson, J. et al. (1999)). Treatment of cells with inhibitors was initiated 1 day after seeding cells by adding 75 μl of medium with or without inhibitor, and repeated every two to three days. Apoptosis was measured by Apo-BrdU labeling and following the supplier's (PharMingen; San Diego, Calif.) instructions.
(§2) Stat3 has an essential role in cell proliferation, and constitutively-active Stat3 is required for growth of transformed and tumor cells that harbor aberrant Stat3 signaling. Studies were performed to determine the effects of the peptidomimetic-mediated inhibition of Stat3 on cell proliferation using trypan blue exclusion for viable cell counts.

MDA-MB-231 = assay type: cell-based, human; conditions: 1 mM, MDA-MB-231, four days
Protocol: as §1, §2

NIH3T3/v-Src [1] = assay type: cell-based, mouse; conditions: 1 mM, four days
Protocol: as §1, §2

Stat3 = Stat3 (Mus musculus, UniProt P42227); parameters: nuclear extracts prepared from v-Src-transformed NIH3T3/v-Src; endogenous in cells; host or cells: NIH3T3/v-Src; conditions: Turkson J. et al. (2001); cited from earlier work
NIH3T3/v-Src [2] = assay: Apo-BrdU labeling and flow cytometry for apoptotic cells; assay type: cell-based, mouse; conditions: 48 h
Protocol: as §1
(§3) Because one of the functions of Stat3 is to protect transformed or tumor cells from apoptosis (Catlett-Falcone, R. et al. (1999b); Epling-Burnette, P. K. et al. (2001); Grandis, J. R. et al. (2000); Bowman, T. et al. (2000b); Bromberg, J. F. et al. (1999)), the ability of peptidomimetics of the invention (and PY*LKTK-MTS for comparison) (SEQ ID NO. 1) to induce apoptosis in Stat3-dependent transformed fibroblasts was evaluated. Viral Src-transformed NIH3T3/v-Src fibroblasts were treated with or without compounds for 48 h. Treated cells were then labeled with Apo-BrdU (PharMingen; San Diego, Calif.) for detection of DNA breaks.

NIH3T3 = assay: as above; assay type: cell-based, mouse; conditions: NIH3T3, 1 mM, 48 h, flow cytometry
Protocol: as §1, §3

Stat3, sequence (P42227 whole entry): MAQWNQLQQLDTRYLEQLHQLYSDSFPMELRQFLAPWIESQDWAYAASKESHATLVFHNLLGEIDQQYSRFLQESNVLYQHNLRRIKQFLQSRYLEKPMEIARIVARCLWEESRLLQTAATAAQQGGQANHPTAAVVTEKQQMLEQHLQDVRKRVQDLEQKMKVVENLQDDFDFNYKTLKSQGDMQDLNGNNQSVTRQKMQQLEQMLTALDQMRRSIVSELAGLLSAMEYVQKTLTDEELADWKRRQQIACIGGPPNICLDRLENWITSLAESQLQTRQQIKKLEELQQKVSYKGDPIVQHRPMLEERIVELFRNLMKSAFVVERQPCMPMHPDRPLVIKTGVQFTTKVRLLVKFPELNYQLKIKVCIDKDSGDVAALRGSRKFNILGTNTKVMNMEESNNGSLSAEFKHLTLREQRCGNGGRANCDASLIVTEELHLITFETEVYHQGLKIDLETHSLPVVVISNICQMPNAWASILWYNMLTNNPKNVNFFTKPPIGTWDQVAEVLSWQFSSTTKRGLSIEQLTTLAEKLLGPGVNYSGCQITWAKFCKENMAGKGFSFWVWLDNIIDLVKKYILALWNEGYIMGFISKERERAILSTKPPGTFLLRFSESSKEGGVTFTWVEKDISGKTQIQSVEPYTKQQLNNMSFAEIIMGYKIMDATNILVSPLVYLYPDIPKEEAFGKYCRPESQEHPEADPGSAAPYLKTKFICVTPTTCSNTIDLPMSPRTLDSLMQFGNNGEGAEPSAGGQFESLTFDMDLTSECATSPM

With “PY*LKTK-AAVLLPVLLAAP (P[pY]LKTKAAVLLPVLLAAP) [PY*LKTK-MTS]” the cell proliferation (MDA-MB-435) was “significantly suppresses proliferation”, the cell proliferation (MDA-MB-231) was “significantly suppresses proliferation” and the cell proliferation (NIH3T3/v-Src [1]) was “significantly suppresses proliferation”. For the same substance, the “constitutive Stat3 activation in Src-transformed fibroblasts” value (Stat3) was “inhibits constitutive Stat3 activation”, the “percent of apoptotic cells” value (NIH3T3/v-Src [2]; NIH3T3/v-Src, 1 mM, Apo-BrdU, flow cytometry) was 27.6% and the “incorporated BrdUTP compared to controls (in words)” value (NIH3T3/v-Src [2]; Src-transformed fibroblasts) was “dramatic increases in incorporated BrdUTP”. For the same substance, the “percent of apoptotic cells” value (NIH3T3) was 3.7%.
